Common to all, as to assay type: functional, cell-based
Holding throughout (details): pig, llc-pk1, 50 µM

In data set [1] the target is T1, ATP-dependent translocase ABCB1 (Homo sapiens, UniProt P08183). Nature of the data set: TP_TRANSPORTER: inhibition of Digoxin transepithelial transport (basal to apical)(Digoxin: 0.1 uM, Captopril: 50 uM) in MDR1-expressing LLC-PK1 cells.
In data set [2] the target is T1, ATP-dependent translocase ABCB1. Nature of the data set: TP_TRANSPORTER: inhibition of Digoxin transepithelial transport (basal to apical)(Digoxin: 0.1 uM, Candesartan: 50 uM) in MDR1-expressing LLC-PK1 cells.
The target is the same in data set [3]. Nature of the data set: TP_TRANSPORTER: inhibition of Digoxin transepithelial transport (basal to apical) (Digoxin: 0.1 uM, Perindopril: 50 uM) in MDR1-expressing LLC-PK1 cells.
The target is the same in data set [4]. Briefly: TP_TRANSPORTER: inhibition of Digoxin transepithelial transport (basal to apical) (Digoxin: 0.1 uM, Losartan: 50 uM) in MDR1-expressing LLC-PK1 cells.
For data set [5] the target is unchanged. Briefly: TP_TRANSPORTER: inhibition of Digoxin transepithelial transport (basal to apical)(Digoxin: 0.1 uM, Candesartan cilexetil: 50 uM) in MDR1-expressing LLC-PK1 cells.
Data set [6] shares this target. Nature of the data set: TP_TRANSPORTER: inhibition of Digoxin transepithelial transport (basal to apical)(Digoxin: 0.1 uM, Metprolol: 50 uM) in MDR1-expressing LLC-PK1 cells.
For data set [7] the target is unchanged. Nature of the data set: TP_TRANSPORTER: inhibition of Digoxin transepithelial transport (basal to apical) (Digoxin: 0.1 uM, Perindoprilat: 50 uM) in MDR1-expressing LLC-PK1 cells.
For data set [8] the target is unchanged. Nature of the data set: TP_TRANSPORTER: inhibition of Digoxin transepithelial transport (basal to apical)(Digoxin: 0.1 uM, Delapril: 50 uM) in MDR1-expressing LLC-PK1 cells.
Data set [9] has the same target. Nature of the data set: TP_TRANSPORTER: inhibition of Digoxin transepithelial transport (basal to apical)(Digoxin: 0.1 uM, Carvedilol: 50 uM) in MDR1-expressing LLC-PK1 cells.
Data set [10] shares this target. Briefly: TP_TRANSPORTER: inhibition of Digoxin transepithelial transport (basal to apical)(Digoxin: 0.1 uM, Cilazaprilat: 50 uM) in MDR1-expressing LLC-PK1 cells.
For data set [11] the target is unchanged. Briefly: TP_TRANSPORTER: inhibition of Digoxin transepithelial transport (basal to apical)(Digoxin: 0.1 uM, Enalapril: 50 uM) in MDR1-expressing LLC-PK1 cells.
Data set [12] has the same target. Briefly: TP_TRANSPORTER: inhibition of Digoxin transepithelial transport (basal to apical)(Digoxin: 0.1 uM, Doxazosin: 50 uM) in MDR1-expressing LLC-PK1 cells.
Data set [13] shares this target. Nature of the data set: TP_TRANSPORTER: inhibition of Digoxin transepithelial transport (basal to apical)(Digoxin: 0.1 uM, Atenolol: 50 uM) in MDR1-expressing LLC-PK1 cells.
Data set [14] shares this target. Nature of the data set: TP_TRANSPORTER: inhibition of Digoxin transepithelial transport (basal to apical)(Digoxin: 0.1 uM, Temocaprilat: 50 uM) in MDR1-expressing LLC-PK1 cells.
For data set [15] the target is unchanged. Nature of the data set: TP_TRANSPORTER: inhibition of Digoxin transepithelial transport (basal to apical)(Digoxin: 0.1 uM, Cilazapril: 50 uM) in MDR1-expressing LLC-PK1 cells.
The target is the same in data set [16]. Nature of the data set: TP_TRANSPORTER: inhibition of Digoxin transepithelial transport (basal to apical)(Digoxin: 0.1 uM, Temocapril: 50 uM) in MDR1-expressing LLC-PK1 cells.
The target is the same in data set [17]. Nature of the data set: TP_TRANSPORTER: inhibition of Digoxin transepithelial transport (basal to apical) (Digoxin: 0.1 uM, Lisinopril: 50 uM) in MDR1-expressing LLC-PK1 cells.

17 compounds from ChEMBL document CHEMBL2073891, “Interaction of digoxin with antihypertensive drugs via MDR1” (Life Sci, 2002) can be followed below.

T1 sequence (P08183 whole entry): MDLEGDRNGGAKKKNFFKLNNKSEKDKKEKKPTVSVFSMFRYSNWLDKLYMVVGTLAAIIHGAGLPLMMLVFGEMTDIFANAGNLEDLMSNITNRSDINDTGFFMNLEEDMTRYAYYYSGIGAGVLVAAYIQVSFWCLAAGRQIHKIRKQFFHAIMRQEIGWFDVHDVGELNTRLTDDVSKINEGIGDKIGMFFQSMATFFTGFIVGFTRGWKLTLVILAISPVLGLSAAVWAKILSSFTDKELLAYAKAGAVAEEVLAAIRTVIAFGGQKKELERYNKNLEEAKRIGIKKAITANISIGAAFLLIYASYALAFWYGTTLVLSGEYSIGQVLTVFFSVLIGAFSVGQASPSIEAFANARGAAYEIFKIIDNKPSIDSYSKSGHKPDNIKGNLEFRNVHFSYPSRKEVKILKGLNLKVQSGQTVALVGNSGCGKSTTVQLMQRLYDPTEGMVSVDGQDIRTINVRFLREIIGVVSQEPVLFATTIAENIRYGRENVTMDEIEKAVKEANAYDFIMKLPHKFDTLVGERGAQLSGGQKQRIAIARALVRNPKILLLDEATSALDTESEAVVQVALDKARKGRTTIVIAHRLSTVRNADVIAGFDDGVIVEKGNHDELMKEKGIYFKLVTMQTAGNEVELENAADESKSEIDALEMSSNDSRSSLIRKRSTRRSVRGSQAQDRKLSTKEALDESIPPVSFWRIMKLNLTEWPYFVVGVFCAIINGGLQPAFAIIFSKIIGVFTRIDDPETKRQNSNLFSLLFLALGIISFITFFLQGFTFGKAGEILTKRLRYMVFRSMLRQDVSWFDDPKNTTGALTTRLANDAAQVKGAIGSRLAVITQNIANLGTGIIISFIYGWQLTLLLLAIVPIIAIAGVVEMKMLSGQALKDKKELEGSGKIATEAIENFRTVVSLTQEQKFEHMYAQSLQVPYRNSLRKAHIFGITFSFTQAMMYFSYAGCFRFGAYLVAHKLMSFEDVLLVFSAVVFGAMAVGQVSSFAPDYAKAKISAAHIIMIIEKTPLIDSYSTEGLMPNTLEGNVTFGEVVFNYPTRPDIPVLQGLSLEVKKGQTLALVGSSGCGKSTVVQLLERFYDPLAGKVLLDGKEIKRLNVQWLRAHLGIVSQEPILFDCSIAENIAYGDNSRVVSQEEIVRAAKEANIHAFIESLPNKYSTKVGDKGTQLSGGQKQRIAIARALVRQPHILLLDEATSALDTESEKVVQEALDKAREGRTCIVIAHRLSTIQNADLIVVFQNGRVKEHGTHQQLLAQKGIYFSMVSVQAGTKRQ

`C[C@H](CS)C(=O)N1CCC[C@H]1C(=O)O` [CAPTOPRIL]: in data set [1], the Activity result was “is not an inhibitor [-]”.

Turning to `CCOc1nc2cccc(C(=O)O)c2n1Cc1ccc(-c2ccccc2-c2nnn[nH]2)cc1` [CANDESARTAN], the Activity result in data set [2] was “is not an inhibitor [-]”.

`CCC[C@H](N[C@@H](C)C(=O)N1[C@H](C(=O)O)C[C@@H]2CCCC[C@@H]21)C(=O)OCC` [PERINDOPRIL]: the Activity entry in [3] is “is not an inhibitor [-]”.

Consider `CCCCc1nc(Cl)c(CO)n1Cc1ccc(-c2ccccc2-c2nn[nH]n2)cc1` [LOSARTAN], for which the Activity result in data set [4] is “is not an inhibitor [-]”.

Regarding `CCOc1nc2cccc(C(=O)OC(C)OC(=O)OC3CCCCC3)c2n1Cc1ccc(-c2ccccc2-c2nnn[nH]2)cc1` (configuration not stated) [CANDESARTAN CILEXETIL], the Activity entry in [5] is “is not an inhibitor [-]”.

On to `COCCc1ccc(OCC(O)CNC(C)C)cc1` (configuration not stated) [METOPROLOL], for which the Activity result in data set [6] was “is not an inhibitor [-]”.

On to `CCC[C@H](N[C@@H](C)C(=O)N1[C@H](C(=O)O)C[C@@H]2CCCC[C@@H]21)C(=O)O` [PERINDOPRILAT], for which, in [7], the Activity entry is “is not an inhibitor [-]”.

On to `CCOC(=O)[C@H](CCc1ccccc1)N[C@@H](C)C(=O)N(CC(=O)O)C1Cc2ccccc2C1` [DELAPRIL], for which, in data set [8], the Activity entry is “is not an inhibitor [-]”.

`COc1ccccc1OCCNCC(O)COc1cccc2[nH]c3ccccc3c12` (configuration not stated) [CARVEDILOL]: the Activity entry in data set [9] was “inhibitor [+]”.

As for `O=C(O)[C@H](CCc1ccccc1)N[C@H]1CCCN2CCC[C@@H](C(=O)O)N2C1=O` [CILAZAPRILAT], the Activity result in data set [10] is “is not an inhibitor [-]”.

Turning to `CCOC(=O)[C@H](CCc1ccccc1)N[C@@H](C)C(=O)N1CCC[C@H]1C(=O)O` [ENALAPRIL], the Activity entry in [11] was “is not an inhibitor [-]”.

For the compound `COc1cc2nc(N3CCN(C(=O)C4COc5ccccc5O4)CC3)nc(N)c2cc1OC` (configuration not stated) [DOXAZOSIN], the Activity entry in [12] is “inhibitor [+]”.

Turning to `CC(C)NCC(O)COc1ccc(CC(N)=O)cc1` (configuration not stated) [ATENOLOL], in [13], the Activity entry is “is not an inhibitor [-]”.

On to `O=C(O)CN1C[C@@H](c2cccs2)SC[C@H](N[C@@H](CCc2ccccc2)C(=O)O)C1=O` [TEMOCAPRILAT], for which the Activity result in data set [14] is “is not an inhibitor [-]”.

On to `CCOC(=O)[C@H](CCc1ccccc1)N[C@H]1CCCN2CCC[C@@H](C(=O)O)N2C1=O` [CILAZAPRIL], for which the Activity entry in data set [15] was “is not an inhibitor [-]”.

In the case of `CCOC(=O)[C@H](CCc1ccccc1)N[C@H]1CS[C@H](c2cccs2)CN(CC(=O)O)C1=O` [TEMOCAPRIL], the Activity result in [16] was “is not an inhibitor [-]”.

For `NCCCC[C@H](N[C@@H](CCc1ccccc1)C(=O)O)C(=O)N1CCC[C@H]1C(=O)O` [LISINOPRIL ANHYDROUS], in data set [17], the Activity result was “is not an inhibitor [-]”.
